# According to patent US8309593B2, “2-acylaminopropoanol-type glucosylceramide synthase inhibitors” (Genzyme Corporation, priority 2008, dated 2012):
# Experiments:
# GM3 = GM3 Elisa assay; type: cell-based; conditions: Table 3 (title: IC 50 Values); read-out: IC50_uM_Mean
# Method: B16-FO cells from ATCC (American Tissue Culture Collection) were grown in DMEM media (ATCC) with 10% Fetal Bovine Serum (Hyclone) and Pen/Step/Glutamine (Biowhittaker). 4000 cells per well were plated on collagen coated plates (BD) and allowed to attach for 6 hours in an incubator (37 degrees, 5% CO2). After 6 hours the compounds and controls were added to the wells, the plates mixed and returned to the incubator for 2 days. Day of assay the cells were fixed for 20 minutes with 1% formaldehyde and then washed with Tris Buffered Saline (TBS) 3 times, 150 μl of TBS was left in the wells and 50 μl of goat serum (Invitrogen) was added, the plates mixed and incubated for 1 hour at room temperature. The plates were flicked and the cells incubated with the monoclonal Antibody to GM3 (NeuAc) (Cosmo) for 45 minutes as room temperature. The plates were then washed 3 times with TBS, leaving 150 μl of TBS in the wells and Peroxidase AffinPure F (ab′) 2 frag Gt Anti-mouse IgM, μ Chain Specific (Jackson Immuno Research) was added in 50 μl, the plates mixed and incubated for 45 minutes at room temperature. The plates were washed 3 times with TBS, flicked and blotted and 100 μl of Quantablu (Pierce) was added to the wells and incubated for 1 hour then read on a Fluorometer at Ex 325 and Em 420. The data was then analyzed using standard programs.
# jck mice = test: PKD mouse model (jck mice, compound in feed); type: in vivo; conditions: for BUN / Body weight / Cystic volume / K/BW ratio: 0.225% Compound A in feed
# Method: jck mice was administered Compound A ad libitum in feed (0.225% Compound A mixed with a standard diet chow in powdered format) from 26-64 days of age. Control jck mice were fed a control powdered diet from 26-64 days of age. At 63 days of age, animals were transferred to metabolic cages for 24 hour urine collection. At 64 days of age, animals were sacrificed by CO2 administration. Blood was collected by heart puncture for serum isolation. Kidneys were isolated and bisected; half of each kidney was fixed in 4% paraformaldehyde in PBS overnight for paraffin embedding and H&E staining.
# Total body weight and kidney weight were determined at sacrifice.
# Cyst volume was measured by quantitating the percentage of cystic area in histological sections of kidneys from the treated and control animals, multiplied by the kidney/body weight ratio.
# Blood urea nitrogen (BUN) levels were determined in serum samples derived from animals at sacrifice.
# [1] = female jck mice, 26-64 days of age
# [2] = male jck mice, 26-64 days of age
IC50 (GM3),Compound,other results
100 to 1000 nM,CC(O)(CCCCCC(=O)N[C@H](CN1CCCC1)[C@@H](O)c1ccc2c(c1)OCCO2)C1CCCC1 (stereo partly shown) [Compound 633],
100 to 1000 nM,O=C(CCCCCCOCC(F)(F)F)N[C@H](CN1CCCC1)[C@@H](O)c1ccc2c(c1)OCCO2 [Compound 634],
3000 to 10000 nM,O=C(N[C@H](CN1CCCC1)[C@H](O)c1ccc2c(c1)OCCO2)[C@H]1CC[C@@H](C(=O)c2ccc(F)cc2)C1 [Compound 635],
≤ 100 nM,CC(O)(CCCCCC(=O)N[C@H](CN1CCCC1)[C@@H](O)c1ccc2c(c1)OCCO2)C1CCCCC1 (stereo partly shown) [Compound 641],
3000 to 10000 nM,Cc1noc(CCCCC(=O)N[C@@H](CN2CCCC2)C(O)c2ccc3c(c2)OCCO3)n1 (stereo partly shown) [Compound 652],
≤ 100 nM,O=C(CCCCCC(=O)c1ccc(F)cc1)NC(CN1CC[C@H](O)C1)[C@H](O)c1ccc2c(c1)OCCO2 (stereo partly shown) [Compound 653],
≤ 100 nM,O=C(CCCOc1ccc(F)cc1)N[C@@H](CN1CC[C@H](O)C1)[C@H](O)c1ccc2c(c1)OCCO2 [Compound 656],
100 to 1000 nM,CCCCOc1ccc([C@@H](O)[C@@H](CN2CCC(F)C2)NC(=O)CCCCC(=O)c2ccc(F)cc2)cc1 (stereo partly shown) [Compound 658],
3000 to 10000 nM,CC(=O)CCCCCC(=O)N[C@H](CN1CCCC1)[C@@H](O)c1ccc(OC(F)(F)F)cc1 [Compound 665],
100 to 1000 nM,COc1ccc(C(=O)CCCCCC(=O)N[C@H](CN2CCCC2)[C@@H](O)c2ccc(OC(F)(F)F)cc2)cc1 [Compound 666],
100 to 1000 nM,CCCCCCCC(=O)N[C@H](CN1CCCC1)[C@@H](O)c1ccc(OC(F)(F)F)cc1 [Compound 667],
3000 to 10000 nM,COc1cc([C@H](O)[C@@H](CN2CCCC2)NC(=O)CCCCCC(C)=O)cc(OC)c1OC [Compound 671],
3000 to 10000 nM,CCCCCCCCCCCCCCCCC(=O)N[C@H](CN(C)Cc1ccco1)[C@H](O)c1ccc2c(c1)OCCO2 [Compound 683],
100 to 1000 nM,CCCCCCCCCCCCCCCC(=O)N[C@H](CN(C)C(C)C)[C@H](O)c1ccc2c(c1)OCCO2 [Compound 684],
3000 to 10000 nM,CCCCCCCCCCCCCCCC(=O)N[C@H](CN(C)C1CCCC1)C(O)c1ccc2c(c1)OCCO2 (stereo partly shown) [Compound 685],
,"CCCCCCCCC(=O)N[C@H](CN1CCCC1)[C@H](O)c1ccc2c(c1)OCCO2 [Compound A, N-((1R,2R)-1-(2,3-dihydrobenzo[b][1,4]dioxin-6-yl)-1-hydroxy-3-(pyrrolidin-1-yl)propan-2-yl)nonanamide]","BUN (jck mice; [1]): 34.67 ± 9.41 mg/dL; Body weight (jck mice; [1]): 15.93 ± 1.65 g; Cystic volume (jck mice; [1]): 0.58 ± 0.29 % BW; K/BW ratio (jck mice; [1]): 3.57 ± 0.58 %; total body weight (jck mice; jck mice, 0.225% in feed, 26-64 days of age, at sacrifice, vs control, p-value<0.05, two-tailed t-test): statistically significant decrease; cyst volume (jck mice; jck mice, 0.225% in feed, 26-64 days of age, percentage cystic area x kidney/body weight ratio, vs control, p-value<0.05): significant decrease; Blood urea nitrogen (BUN) levels (jck mice; jck mice, 0.225% in feed, 26-64 days of age, serum at sacrifice, vs untreated controls, p-value<0.05): significant reduction; cystic disease (jck mice; jck mice, 0.225% in feed, as measured by kidney/body weight ratio and cyst volume, males and females): statistically significant reduction; renal function (jck mice; jck mice, 0.225% in feed, treated animals relative to controls, males and females): improved renal function; BUN (jck mice; [2]): 39.25 ± 10.70 mg/dL; Body weight (jck mice; [2]): 18.43 ± 1.82 g; Cystic volume (jck mice; [2]): 0.88 ± 0.23 % BW; K/BW ratio (jck mice; [2]): 4.46 ± 0.46 %"

Compound,IC50 (GM3),other results
COc1ccc(OCCC(=O)N[C@@H](CN2CCCC2)[C@@H](O)c2ccc3c(c2)OCCO3)cc1 [Compound 674],3000 to 10000 nM,
COc1ccc(OCCC(=O)N[C@@H](CN2CCCC2)[C@@H](O)c2ccc3c(c2)OCCO3)cc1 [Compound 675],3000 to 10000 nM,
COc1ccc(OCCC(=O)N[C@H](CN2CCCC2)[C@@H](O)c2ccc3c(c2)OCCO3)cc1 [Compound 676],3000 to 10000 nM,
